Experiment [1] has as its target T1, Cholecystokinin receptor type A (Homo sapiens, UniProt P32238).
T1 sequence (P32238 whole entry): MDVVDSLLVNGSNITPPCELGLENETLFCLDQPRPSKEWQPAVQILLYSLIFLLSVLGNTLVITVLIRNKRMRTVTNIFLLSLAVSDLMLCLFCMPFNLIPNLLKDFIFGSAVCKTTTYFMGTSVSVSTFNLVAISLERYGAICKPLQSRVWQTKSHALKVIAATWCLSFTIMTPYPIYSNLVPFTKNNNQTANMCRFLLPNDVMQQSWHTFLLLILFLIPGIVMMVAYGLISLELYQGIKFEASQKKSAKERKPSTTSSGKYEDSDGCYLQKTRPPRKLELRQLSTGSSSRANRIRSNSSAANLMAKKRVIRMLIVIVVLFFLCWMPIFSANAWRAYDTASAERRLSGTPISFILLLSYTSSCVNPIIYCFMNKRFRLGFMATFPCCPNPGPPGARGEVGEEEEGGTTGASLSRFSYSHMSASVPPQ

Experiment [2] deals with T2, Alpha-2A adrenergic receptor (Homo sapiens, UniProt P08913).
T2 sequence (P08913 whole entry): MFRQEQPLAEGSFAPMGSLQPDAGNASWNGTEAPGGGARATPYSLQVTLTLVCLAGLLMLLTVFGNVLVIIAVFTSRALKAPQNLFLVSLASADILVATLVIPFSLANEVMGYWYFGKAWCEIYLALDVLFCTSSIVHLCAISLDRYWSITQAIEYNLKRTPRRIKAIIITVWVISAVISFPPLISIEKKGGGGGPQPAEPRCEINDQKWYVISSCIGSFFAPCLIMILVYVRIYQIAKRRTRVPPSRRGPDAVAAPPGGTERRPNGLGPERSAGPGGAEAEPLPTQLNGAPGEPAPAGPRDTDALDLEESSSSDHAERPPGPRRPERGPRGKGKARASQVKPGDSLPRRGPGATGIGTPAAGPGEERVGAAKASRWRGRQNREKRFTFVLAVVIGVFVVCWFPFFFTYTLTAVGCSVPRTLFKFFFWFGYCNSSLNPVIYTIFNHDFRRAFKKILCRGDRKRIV
Type of experiment: functional, cell-based.

The target of a further experiment is Cannabinoid receptor 1 (Homo sapiens, UniProt P21554). Format: functional, cell-based.
Cannabinoid receptor 1, sequence (P21554 whole entry): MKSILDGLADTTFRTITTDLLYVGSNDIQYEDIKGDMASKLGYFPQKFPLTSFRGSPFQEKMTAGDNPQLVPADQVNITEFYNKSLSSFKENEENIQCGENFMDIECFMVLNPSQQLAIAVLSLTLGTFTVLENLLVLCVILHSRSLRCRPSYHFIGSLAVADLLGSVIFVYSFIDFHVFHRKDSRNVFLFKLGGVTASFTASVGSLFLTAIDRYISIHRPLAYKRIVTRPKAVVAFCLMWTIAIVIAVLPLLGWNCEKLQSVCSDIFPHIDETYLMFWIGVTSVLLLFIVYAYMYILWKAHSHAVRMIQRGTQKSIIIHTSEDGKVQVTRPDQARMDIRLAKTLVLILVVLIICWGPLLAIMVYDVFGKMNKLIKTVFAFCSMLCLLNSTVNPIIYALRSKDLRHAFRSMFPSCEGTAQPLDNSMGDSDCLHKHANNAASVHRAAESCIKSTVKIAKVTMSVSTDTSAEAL
Experiment [3] deals with T2, Alpha-2A adrenergic receptor. Format: functional, cell-based. This is another data set of the same source.
Another experiment concerns the target Vasopressin V2 receptor (Homo sapiens, UniProt P30518).
Experiment [4] has as its target Glutamate receptor ionotropic, NMDA 1 (Rattus norvegicus, UniProt P35439).
The target in experiment [5] is T3, Alpha-1A adrenergic receptor (Homo sapiens, UniProt P35348).
T3 sequence (P35348 whole entry): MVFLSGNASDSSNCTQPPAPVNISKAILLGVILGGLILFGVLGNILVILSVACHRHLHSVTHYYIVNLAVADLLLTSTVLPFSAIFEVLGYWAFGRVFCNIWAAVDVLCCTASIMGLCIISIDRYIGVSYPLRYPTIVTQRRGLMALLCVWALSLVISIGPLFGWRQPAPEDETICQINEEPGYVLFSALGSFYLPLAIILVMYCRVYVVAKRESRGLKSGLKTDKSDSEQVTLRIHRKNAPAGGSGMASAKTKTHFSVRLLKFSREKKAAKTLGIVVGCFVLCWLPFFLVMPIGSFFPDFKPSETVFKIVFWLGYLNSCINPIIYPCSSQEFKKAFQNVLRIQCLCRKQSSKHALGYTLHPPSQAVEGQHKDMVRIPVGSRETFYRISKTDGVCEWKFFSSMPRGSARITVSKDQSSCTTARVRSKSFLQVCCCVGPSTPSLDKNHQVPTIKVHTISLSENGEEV
Type of experiment: functional, cell-based.

Experiment [6] has as its target T3, Alpha-1A adrenergic receptor. Type of experiment: functional, cell-based. This is another data set of the same source.
Another experiment concerns the target Mu-type opioid receptor (Homo sapiens, UniProt P35372). Briefly: biochemical. Type of experiment: functional.
For experiment [7], the target named is Growth hormone secretagogue receptor type 1 (Homo sapiens, UniProt Q92847).
Growth hormone secretagogue receptor type 1, sequence (Q92847 whole entry): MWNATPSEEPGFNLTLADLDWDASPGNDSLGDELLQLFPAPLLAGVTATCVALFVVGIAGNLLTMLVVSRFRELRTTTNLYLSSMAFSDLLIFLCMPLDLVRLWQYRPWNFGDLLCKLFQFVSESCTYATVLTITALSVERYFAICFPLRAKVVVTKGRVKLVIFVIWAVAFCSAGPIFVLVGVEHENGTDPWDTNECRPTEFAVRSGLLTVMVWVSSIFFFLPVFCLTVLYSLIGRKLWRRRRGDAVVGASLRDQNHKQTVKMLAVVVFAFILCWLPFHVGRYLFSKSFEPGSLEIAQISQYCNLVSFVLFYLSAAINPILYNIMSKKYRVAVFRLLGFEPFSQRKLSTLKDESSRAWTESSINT
Experiment [8] deals with T4, Gastrin/cholecystokinin type B receptor (Homo sapiens, UniProt P32239).
T4 sequence (P32239 whole entry): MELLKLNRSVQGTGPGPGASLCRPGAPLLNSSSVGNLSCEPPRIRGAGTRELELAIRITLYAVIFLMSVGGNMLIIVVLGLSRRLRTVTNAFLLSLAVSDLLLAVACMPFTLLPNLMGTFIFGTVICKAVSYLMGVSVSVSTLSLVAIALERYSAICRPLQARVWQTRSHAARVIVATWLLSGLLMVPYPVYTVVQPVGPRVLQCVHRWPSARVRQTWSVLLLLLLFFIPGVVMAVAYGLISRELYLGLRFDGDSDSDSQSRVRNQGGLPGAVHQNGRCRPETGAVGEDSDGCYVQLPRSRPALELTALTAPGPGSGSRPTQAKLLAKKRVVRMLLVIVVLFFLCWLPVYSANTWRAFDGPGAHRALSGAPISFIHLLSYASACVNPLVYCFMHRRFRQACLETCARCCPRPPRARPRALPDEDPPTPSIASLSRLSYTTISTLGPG

The next experiment addresses T5, Adenosine receptor A3 (Homo sapiens, UniProt P0DMS8).
T5 sequence (P0DMS8 whole entry): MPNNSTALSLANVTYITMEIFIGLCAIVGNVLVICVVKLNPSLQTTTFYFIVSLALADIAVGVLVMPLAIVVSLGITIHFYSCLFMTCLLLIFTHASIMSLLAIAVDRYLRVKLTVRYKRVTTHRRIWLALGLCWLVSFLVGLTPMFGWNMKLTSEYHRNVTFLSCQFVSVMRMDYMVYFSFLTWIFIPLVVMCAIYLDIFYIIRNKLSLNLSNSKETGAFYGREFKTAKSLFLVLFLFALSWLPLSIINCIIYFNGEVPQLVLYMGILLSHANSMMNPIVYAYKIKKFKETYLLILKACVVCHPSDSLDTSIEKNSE

A word on the AC50: it is the concentration giving half of the maximal activity seen. A low value points to greater potency.

Molecules are shown by their SMILES.
Note: assay procedure not described here.

Mu-type opioid receptor, sequence (P35372 whole entry): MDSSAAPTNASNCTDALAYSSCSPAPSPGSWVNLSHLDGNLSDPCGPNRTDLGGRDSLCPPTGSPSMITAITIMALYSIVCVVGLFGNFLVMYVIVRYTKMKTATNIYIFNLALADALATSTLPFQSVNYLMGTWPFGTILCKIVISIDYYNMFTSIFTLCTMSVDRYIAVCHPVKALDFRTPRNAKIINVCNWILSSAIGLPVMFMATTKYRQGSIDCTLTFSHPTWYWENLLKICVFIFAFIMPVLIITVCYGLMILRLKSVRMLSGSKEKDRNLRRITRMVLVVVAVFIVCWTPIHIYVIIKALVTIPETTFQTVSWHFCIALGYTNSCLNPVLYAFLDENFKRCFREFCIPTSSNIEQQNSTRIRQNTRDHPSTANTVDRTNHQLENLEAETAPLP
Vasopressin V2 receptor, sequence (P30518 whole entry): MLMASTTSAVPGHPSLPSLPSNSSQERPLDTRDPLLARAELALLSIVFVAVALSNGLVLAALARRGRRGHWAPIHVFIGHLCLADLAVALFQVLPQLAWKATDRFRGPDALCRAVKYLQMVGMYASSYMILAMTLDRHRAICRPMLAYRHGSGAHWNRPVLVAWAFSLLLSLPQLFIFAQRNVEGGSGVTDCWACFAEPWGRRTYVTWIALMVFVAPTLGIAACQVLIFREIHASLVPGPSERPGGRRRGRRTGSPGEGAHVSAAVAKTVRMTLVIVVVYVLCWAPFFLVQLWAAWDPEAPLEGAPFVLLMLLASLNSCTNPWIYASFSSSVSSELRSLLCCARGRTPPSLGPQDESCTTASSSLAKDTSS

For `CCCNC(C)C(=O)Nc1ccccc1C` (stereo not given) [PRILOCAINE], the AC50 in experiment [1] was more than 30 µM; in experiment [2], more than 30 µM; on Cannabinoid receptor 1, more than 30 µM; in experiment [3], more than 30 µM; at Vasopressin V2 receptor, more than 30 µM; in experiment [4] it was 21 µM. For the same molecule, the AC50 (in experiment [5]; in [6]; at Mu-type opioid receptor; in experiment [7]; in experiment [8]; on Adenosine receptor A3) was more than 30 µM in each case.
Take `CCN(CC)CC(=O)Oc1ccc(NC(C)=O)cc1` [PROPACETAMOL]: the AC50 (in [1]; in experiment [2]; at Cannabinoid receptor 1; in [3]; at Vasopressin V2 receptor; in experiment [4]) was more than 30 µM each time. For the same molecule, the AC50 (in [5]; in [6]; at Mu-type opioid receptor; in [7]; in experiment [8]; on Adenosine receptor A3) was more than 30 µM in each case.
With `CCCOC(C(=O)OC1CCN(C)CC1)(c1ccccc1)c1ccccc1` [PROPIVERINE], the AC50 (in [1]; in [2]; at Cannabinoid receptor 1; in experiment [3]; at Vasopressin V2 receptor; in experiment [4]) was more than 30 µM throughout. Besides, the AC50 is more than 30 µM in [5]; more than 30 µM in experiment [6]; 3.6 µM on Mu-type opioid receptor; more than 30 µM in experiment [7]; more than 30 µM in experiment [8]; more than 30 µM at Adenosine receptor A3.
With `Cc1ccc2c(-c3ccccc3)nc(=O)n(C(C)C)c2c1` [PROQUAZONE], the AC50 in [1] was more than 30 µM; in experiment [2], more than 30 µM; at Cannabinoid receptor 1, more than 30 µM; in [3], 28 µM; on Vasopressin V2 receptor, more than 30 µM; in [4], more than 30 µM. Besides, the AC50 in experiment [5] is more than 30 µM; in experiment [6] it was more than 30 µM; on Mu-type opioid receptor it was more than 30 µM; in [7], more than 30 µM; in experiment [8] it was more than 30 µM; on Adenosine receptor A3, 23 µM.
As for `CN1CCN(c2c(F)cc3c(=O)c(C(=O)O)cn4c3c2SCC4)CC1` [RUFLOXACIN], the AC50 (in experiment [1]; in [2]; on Cannabinoid receptor 1; in experiment [3]; on Vasopressin V2 receptor; in [4]) was more than 30 µM throughout. In addition, the AC50 (in [5]; in experiment [6]; at Mu-type opioid receptor; in experiment [7]; in experiment [8]; on Adenosine receptor A3) was more than 30 µM each time.
For `CC(C)CC(N(C)C)C1(c2ccc(Cl)cc2)CCC1` (stereo not given) [SIBUTRAMINE], the AC50 in experiment [1] was more than 30 µM; in experiment [2] it was more than 30 µM; on Cannabinoid receptor 1, more than 30 µM; in [3], 30 µM; at Vasopressin V2 receptor it was more than 30 µM; in [4], more than 10 µM. The half-maximal activity concentration (AC50) (in [5]; in experiment [6]; on Mu-type opioid receptor; in [7]; in experiment [8]; at Adenosine receptor A3) was more than 30 µM each time.
Turning to `[H]/N=C(/N)N[C@H]1[C@H](O)[C@@H](O)[C@H](O[C@@H]2O[C@@H](C)[C@](O)(C=O)[C@H]2O[C@@H]2O[C@@H](CO)[C@H](O)[C@@H](O)[C@@H]2NC)[C@@H](N/C(N)=N\[H])[C@@H]1O` [STREPTOMYCIN], the AC50 (in experiment [1]; in experiment [2]; on Cannabinoid receptor 1; in experiment [3]; on Vasopressin V2 receptor; in [4]) was more than 30 µM throughout. Besides, the AC50 (in experiment [5]; in experiment [6]; on Mu-type opioid receptor; in [7]; in [8]; on Adenosine receptor A3) was more than 30 µM throughout.
On to `COc1c(O[C@@H]2O[C@H](CO)[C@@H](O)[C@H](O)[C@H]2O)cc2c(c1OC)-c1ccc(SC)c(=O)cc1[C@@H](NC(C)=O)CC2` [THIOCOLCHICOSIDE], for which the AC50 (in experiment [1]; in [2]; at Cannabinoid receptor 1; in [3]; at Vasopressin V2 receptor; in experiment [4]) was more than 30 µM in each case. Besides, the AC50 (in experiment [5]; in experiment [6]; on Mu-type opioid receptor; in [7]; in experiment [8]; on Adenosine receptor A3) was more than 30 µM each time.
Take `CC(C)(C)NC[C@H](O)COc1nsnc1N1CCOCC1` [TIMOLOL]: the AC50 (in experiment [1]; in [2]; at Cannabinoid receptor 1; in [3]; at Vasopressin V2 receptor; in experiment [4]) was more than 30 µM each time. Also, the concentration at half-maximal activity (AC50) (in experiment [5]; in [6]; at Mu-type opioid receptor; in experiment [7]; in experiment [8]; at Adenosine receptor A3) was more than 30 µM in each case.
As for `COc1cc2c(Nc3ccc(Br)cc3F)ncnc2cc1OCC1CCN(C)CC1` [VANDETANIB], the AC50 in experiment [1] is more than 10 µM; in [2], more than 30 µM; at Cannabinoid receptor 1, more than 30 µM; in [3] it was 2.1 µM; at Vasopressin V2 receptor, more than 30 µM; in experiment [4] it was more than 30 µM. For the same molecule, the AC50 in [5] was more than 30 µM; in experiment [6] it was 22 µM; at Mu-type opioid receptor, more than 30 µM; in [7], 26 µM; in experiment [8], more than 10 µM; at Adenosine receptor A3, 23 µM.

The values above are taken from ChEMBL document CHEMBL5291721, “A preclinical secondary pharmacology resource illuminates target-adverse drug reaction associations of marketed drugs” (Nat Commun, 2023).
